{"source": "patent US20060111346A1", "about": "“Methods of modulating high-density lipoprotein cholesterol levels and pharmaceutical formulations for the same” (Fazix Corporation., priority 2004, published 2006)", "key": {"CETP": {"target": "T1, CETP (Oryctolagus cuniculus, UniProt P22687)", "T1 construct": "purchased Biovision Research Products K602-100", "T1 sequence (P22687 2-497)": "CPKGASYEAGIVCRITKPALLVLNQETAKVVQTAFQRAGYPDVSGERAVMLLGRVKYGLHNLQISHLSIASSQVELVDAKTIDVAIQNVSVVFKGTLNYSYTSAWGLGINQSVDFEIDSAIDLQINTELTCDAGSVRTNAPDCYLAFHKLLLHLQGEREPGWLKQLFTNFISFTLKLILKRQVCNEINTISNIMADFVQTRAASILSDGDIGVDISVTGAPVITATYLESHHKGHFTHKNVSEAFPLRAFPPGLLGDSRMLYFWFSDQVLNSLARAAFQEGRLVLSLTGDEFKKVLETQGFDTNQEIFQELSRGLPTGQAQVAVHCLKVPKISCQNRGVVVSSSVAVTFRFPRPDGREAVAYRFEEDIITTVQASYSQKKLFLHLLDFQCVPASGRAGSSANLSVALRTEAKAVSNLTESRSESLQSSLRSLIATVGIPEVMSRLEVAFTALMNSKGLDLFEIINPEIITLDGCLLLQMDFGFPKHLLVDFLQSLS", "experiment": "CETP Inhibitor Drug Screening Kit (Biovision K602-100), cholesterol transfer activity", "type": "biochemical", "settings": "100 μM", "protocol": "The inhibitory activity of FZX-CETP-001 was determined in vitro using a commercially available CETP Inhibitor Drug Screening Kit (catalog # K602-100). The kit is available from Biovision Research Products, located in Mountain View, Calif. USA. Information regarding the kit is available at the following url addresses: http://www.biovisionlabs.com/cetp-pltp.html; and http://www.biovision.com/pdf/K602-100.pdf\nFollowing the directions provided with the kit, FZX-CETP-001 was assayed for inhibitory activity."}, "Apo*E3Leiden.hCETP mice": {"system": "Apo*E3Leiden.hCETP mice", "settings": "for HDL cholesterol relative to control group / HDL phospholipids relative to control group / LDL cholesterol relative to control group / LDL phospholipids relative to control group: pooled blood"}, "[1]": {"settings": "oral gavage 0.1 mg/kg/day, 1 week"}, "[2]": {"settings": "oral gavage 0.3 mg/kg/day, 1 week"}, "[3]": {"settings": "oral gavage 1.0 mg/kg/day, 1 week"}, "[4]": {"settings": "serum cholesterol profiles, FIGS. 2A-2D, increasing dose"}, "[5]": {"settings": "serum phospholipid profiles, increasing dose"}, "[6]": {"settings": "subcutaneous depot injection 0.3 mg/kg, 24 hours after injection"}, "[7]": {"settings": "subcutaneous depot injection 1.0 mg/kg, 24 hours after injection"}, "[8]": {"settings": "subcutaneous depot injection 3.0 mg/kg, 24 hours after injection"}}, "note": "Where two headings read alike, the source gives them in different places."}
{"smiles": "CC(C)(Oc1ccc(Cl)cc1)C(=O)OCCN1CCN(CCCN2c3ccccc3Sc3ccc(C(F)(F)F)cc32)CC1", "note": "[FZX-CETP-0001, Fluphenazine 4-chlorophenoxyisobutyric acid ester]", "values": [{"measurement": "inhibition of CETP", "setting": "CETP", "result": 100, "unit": "%"}, {"measurement": "Cholesterol Transfer Activity, Fluorescence Units", "setting": "CETP; Average, N = 2", "result": 8312, "unit": "Fluorescence Units"}, {"measurement": "HDL-C to LDL-C ratio", "setting": "Apo*E3Leiden.hCETP mice; lowest tested dosage of 0.1 mg/kg/day by gavage, treated vs untreated control", "result": "marked increase"}, {"measurement": "control parameters (food intake levels, body weights, cholesterol levels, triglyceride levels)", "setting": "Apo*E3Leiden.hCETP mice; mouse, in vivo", "result": "no statistically significant difference"}, {"measurement": "HDL cholesterol relative to control group", "setting": "Apo*E3Leiden.hCETP mice; [1]", "result": 204, "unit": "%"}, {"measurement": "HDL phospholipids relative to control group", "setting": "Apo*E3Leiden.hCETP mice; [1]", "result": 128, "unit": "%"}, {"measurement": "LDL cholesterol relative to control group", "setting": "Apo*E3Leiden.hCETP mice; [1]", "result": 81, "unit": "%"}, {"measurement": "LDL phospholipids relative to control group", "setting": "Apo*E3Leiden.hCETP mice; [1]", "result": 81, "unit": "%"}, {"measurement": "HDL cholesterol relative to control group", "setting": "Apo*E3Leiden.hCETP mice; [2]", "result": 121, "unit": "%"}, {"measurement": "HDL phospholipids relative to control group", "setting": "Apo*E3Leiden.hCETP mice; [2]", "result": 136, "unit": "%"}, {"measurement": "LDL cholesterol relative to control group", "setting": "Apo*E3Leiden.hCETP mice; [2]", "result": 94, "unit": "%"}, {"measurement": "LDL phospholipids relative to control group", "setting": "Apo*E3Leiden.hCETP mice; [2]", "result": 92, "unit": "%"}, {"measurement": "HDL cholesterol relative to control group", "setting": "Apo*E3Leiden.hCETP mice; [3]", "result": 269, "unit": "%"}, {"measurement": "HDL phospholipids relative to control group", "setting": "Apo*E3Leiden.hCETP mice; [3]", "result": 129, "unit": "%"}, {"measurement": "LDL cholesterol relative to control group", "setting": "Apo*E3Leiden.hCETP mice; [3]", "result": 80, "unit": "%"}, {"measurement": "LDL phospholipids relative to control group", "setting": "Apo*E3Leiden.hCETP mice; [3]", "result": 96, "unit": "%"}, {"measurement": "ratio of HDL-C level in the treated to untreated mice", "setting": "Apo*E3Leiden.hCETP mice; [4]", "result": "increases"}, {"measurement": "ratio of LDL-C level (total area under the curve) in treated to untreated mice", "setting": "Apo*E3Leiden.hCETP mice; [4]", "result": "decreases with increasing dose"}, {"measurement": "ratio of HDL-C level in the treated to untreated mice", "setting": "Apo*E3Leiden.hCETP mice; [5]", "result": "increases"}, {"measurement": "ratio of LDL-C phospholipid level (total area under the curve) in treated to untreated mice", "setting": "Apo*E3Leiden.hCETP mice; [5]", "result": "decreases with increasing dose"}, {"measurement": "HDL cholesterol relative to control group", "setting": "Apo*E3Leiden.hCETP mice; [6]", "result": 286, "unit": "%"}, {"measurement": "HDL phospholipids relative to control group", "setting": "Apo*E3Leiden.hCETP mice; [6]", "result": 141, "unit": "%"}, {"measurement": "LDL cholesterol relative to control group", "setting": "Apo*E3Leiden.hCETP mice; [6]", "result": 100, "unit": "%"}, {"measurement": "LDL phospholipids relative to control group", "setting": "Apo*E3Leiden.hCETP mice; [6]", "result": 71, "unit": "%"}, {"measurement": "HDL cholesterol relative to control group", "setting": "Apo*E3Leiden.hCETP mice; [7]", "result": 277, "unit": "%"}, {"measurement": "HDL phospholipids relative to control group", "setting": "Apo*E3Leiden.hCETP mice; [7]", "result": 173, "unit": "%"}, {"measurement": "LDL cholesterol relative to control group", "setting": "Apo*E3Leiden.hCETP mice; [7]", "result": 78, "unit": "%"}, {"measurement": "LDL phospholipids relative to control group", "setting": "Apo*E3Leiden.hCETP mice; [7]", "result": 56, "unit": "%"}, {"measurement": "HDL cholesterol relative to control group", "setting": "Apo*E3Leiden.hCETP mice; [8]", "result": 1119, "unit": "%"}, {"measurement": "HDL phospholipids relative to control group", "setting": "Apo*E3Leiden.hCETP mice; [8]", "result": 169, "unit": "%"}, {"measurement": "LDL cholesterol relative to control group", "setting": "Apo*E3Leiden.hCETP mice; [8]", "result": 55, "unit": "%"}, {"measurement": "LDL phospholipids relative to control group", "setting": "Apo*E3Leiden.hCETP mice; [8]", "result": 70, "unit": "%"}, {"measurement": "triglyceride level", "setting": "Apo*E3Leiden.hCETP mice; subcutaneous injections at doses at or above 1 mg/kg", "result": "slightly reduced"}]}
